Biological target: GTPase KRas (Homo sapiens, UniProt P01116)
Experiment: KRAS Biochemical Assay
Method: KRAS Biochemical Assay—BODIPY-GDP Exchange TR-FRET. Biochemical compound potencies were assessed by evaluating inhibition of SOS1-mediated nucleotide exchange in KRAS G12D. The SOS1-promoted exchange of fluorescently-labeled GDP (BODIPY-GDP) was monitored by time-resolved fluorescence resonance energy transfer (TR-FRET). Compounds solubilized in DMSO were dispensed as concentration series into 384-well white assay plates. […] The reaction was initiated with the addition of 5 μL of 3 nM recombinant human SOS1 and 300 nM BODIPY-GDP in assay buffer. […] The TR-FRET ratio was determined as the fluorescence at 520 nm divided by the fluorescence at 490 nm multiplied by 10,000. […] The normalized TR-FRET results were plotted against compound concentration, and the data fit to a 4-parameter Hill equation to determine the IC50 values.

Chain of GTPase KRas (P01116 whole entry): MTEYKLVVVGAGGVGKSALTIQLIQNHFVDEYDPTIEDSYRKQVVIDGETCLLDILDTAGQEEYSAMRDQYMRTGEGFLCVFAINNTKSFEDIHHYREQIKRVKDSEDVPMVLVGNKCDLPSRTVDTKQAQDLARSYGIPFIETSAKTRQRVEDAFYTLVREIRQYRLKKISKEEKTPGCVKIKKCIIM

Cc1cc(N)nc(-c2c(Cl)c3c4c(nc(OCC56CC(CO5)C6)nc4c2F)N([C@H](C)c2cccnc2N)CCO3)c1C(F)(F)F [US20240383915, Example 143]
IC50: 0.87 nM

Source: BindingDB's records for patent US20240383915 (Genentech, 2024)
